Common to all, as to format: physicochemical
The nature of data set [1]: Estimated solubility in solvents at room temperature (stepwise solvent addition). The settings on record: for solubility: thermodynamic from solid. The method, then:
Approximately 2 mg solids were added into a 3-mL glass vial. Solvents in Table 39 were then added step wise (100 μL per step) into the vials until the solids were dissolved or a total volume of 2 mL was reached. Results summarized in Table 39 were used to guide the solvent selection in polymorph screening. […] Approximately 2 mg solids were added into a 3-mL glass vial. Solvents in Table 4-6 were then added stepwise (100 μL per step) into the vials until the solids were dissolved or a total volume of 2 mL was reached. Results are summarized in Table 57, which were used to guide the solvent selection in polymorph screening.

A short description of data set [2]: Dynamic vapor sorption (DVS): hygroscopicity and physical stability under humidity. The method, then: Dynamic Vapor Sorption (DVS) was measured via a SMS (Surface Measurement Systems) DVS Intrinsic.
To evaluate the hygroscopicity and physical stability of Compound 2 Type A under increased humidity, DVS isotherm data was collected at 25° C. with the starting sample pre-dried at 0% RH until a mass change rate lower than 0.002%/min.

Data set [3] in a line: Physical form stability on storage or drying (XRPD/TGA). The source says:
A sample of Compound 2 Type B reference was generated via evaporation of a solution in MeOH/MIBK (v/v, 4:1) at room temperature. […] As the sample was still wet after form transformation, Compound 2 Type B is suspected to be a metastable form at ambient conditions.

≈ marks a conversion by molar mass, not a printed value.

As a reminder, the solubility is how much of the substance goes into solution per volume. On to `Cc1cc(-c2ccnc(Nc3cnn(C)c3)n2)ccc1CNC(=O)N1CC(OC(C)C)C1.Cl` [Compound 2 Type A], for which the solubility was less than 1000 µg/mL in data set [1] (20 °C, organic solvent or mixture, 1,4-dioxane, room temperature (RT, 20±3° C.)); less than 1000 µg/mL in data set [1] (20 °C, organic solvent or mixture, 2-MeTHF, room temperature (RT, 20±3° C.)); less than 1000 µg/mL in data set [1] (20 °C, organic solvent or mixture, ACN, room temperature (RT, 20±3° C.)); less than 900 µg/mL in data set [1] (20 °C, organic solvent or mixture, Acetone, room temperature (RT, 20±3° C.)); less than 1100 µg/mL in data set [1] (20 °C, organic solvent or mixture, CHCl3, room temperature (RT, 20±3° C.)); less than 1100 µg/mL in data set [1] (20 °C, organic solvent or mixture, DCM, room temperature (RT, 20±3° C.)). Moreover, the solubility in data set [1] (20 °C, organic solvent or mixture, DMAc, room temperature (RT, 20±3° C.)) is 22000 to 44000 µg/mL; in data set [1] (20 °C, organic solvent or mixture, DMSO, room temperature (RT, 20±3° C.)) it was 14000 to 21000 µg/mL; in data set [1] (20 °C, organic solvent or mixture, EtOAc, room temperature (RT, 20±3° C.)), less than 1000 µg/mL; in data set [1] (20 °C, organic solvent or mixture, EtOH, room temperature (RT, 20±3° C.)) it was 4400 to 5500 µg/mL; in data set [1] (20 °C, organic solvent or mixture, IPA, room temperature (RT, 20±3° C.)), 1700 to 1800 µg/mL; in data set [1] (20 °C, organic solvent or mixture, IPAc, room temperature (RT, 20±3° C.)) it was less than 1200 µg/mL. In addition, the solubility is less than 1000 µg/mL in data set [1] (20 °C, organic solvent or mixture, MIBK, room temperature (RT, 20±3° C.)); less than 1000 µg/mL in data set [1] (20 °C, organic solvent or mixture, MTBE, room temperature (RT, 20±3° C.)); more than 34000 µg/mL in data set [1] (20 °C, organic solvent or mixture, MeOH, room temperature (RT, 20±3° C.)); 14700 to 22000 µg/mL in data set [1] (20 °C, organic solvent or mixture, NMP, room temperature (RT, 20±3° C.)); less than 900 µg/mL in data set [1] (20 °C, organic solvent or mixture, THF, room temperature (RT, 20±3° C.)); less than 1100 µg/mL in data set [1] (20 °C, organic solvent or mixture, Toluene, room temperature (RT, 20±3° C.)). Besides, in data set [1] (20 °C, organic solvent or mixture, n-heptane, room temperature (RT, 20±3° C.)), the solubility was less than 900 µg/mL. Also, the “Behaviour in the solubility test (stability of the salt)” value in data set [1] (H2O, room temperature, colour change of solids from orange to faint yellow) is reported as “N/A: disproportionation occurred along with obvious color change of solids from orange to faint yellow”. Also, the “Form change after the DVS test (XRPD)” value in data set [2] (25° C.) is reported as “no form change”. Also, the “Hygroscopicity (DVS)” value in data set [2] (25° C.) is on record as “slightly hygroscopic”. For the same compound, the “Water uptake (DVS)” value in data set [2] (25° C./80% RH, sample pre-dried at 0% RH) came out at 1.0%.

Take `Cc1cc(-c2ccnc(Nc3cnn(C)c3)n2)ccc1CNC(=O)N1CC(OC(C)C)C1` [Compound 1 Type B, 3-isopropoxy-N-(2-methyl-4-(2-((1-methyl-1H-pyrazol-4-yl)amino)pyrimidin-4-yl)benzyl)azetidine-1-carboxamide]: in data set [2] (25° C.), the “Form change after the DVS test (XRPD)” value is “no form change” and the “Hygroscopicity (DVS)” value is reported as “slightly hygroscopic”. Also, in data set [2] (relative humidity (RH) less than 10%, 25° C.), the “Behaviour at low humidity (DVS)” value is on record as “tends to dehydrate”. In data set [3] (vacuum dried at 80° C. for 15 hrs), the “Physical stability on vacuum drying” value is recorded as “physically unstable”.

Regarding `Cc1cc(-c2ccnc(Nc3cnn(C)c3)n2)ccc1CNC(=O)N1CC(OC(C)C)C1` [Compound 1 Type A, 3-isopropoxy-N-(2-methyl-4-(2-((1-methyl-1H-pyrazol-4-yl)amino)pyrimidin-4-yl)benzyl)azetidine-1-carboxamide], the solubility in data set [1] (organic solvent or mixture, 1,4-Dioxane, room temperature) is 3500 to 4200 µg/mL (≈ 8.04 to 9.64 mM); in data set [1] (organic solvent or mixture, 2-MeTHF, room temperature), 2200 to 2400 µg/mL (≈ 5.05 to 5.51 mM); in data set [1] (organic solvent or mixture, ACN, room temperature), 2300 to 2600 µg/mL (≈ 5.28 to 5.97 mM); in data set [1] (organic solvent or mixture, Acetic acid, room temperature), more than 54000 µg/mL; in data set [1] (organic solvent or mixture, Acetone, room temperature), 4600 to 5800 µg/mL (≈ 10.6 to 13.3 mM); in data set [1] (organic solvent or mixture, CHCl3, room temperature) it was 20000 to 40000 µg/mL (≈ 45.9 to 91.8 mM). For the same compound, the solubility in data set [1] (organic solvent or mixture, DCM, room temperature) is 12000 to 24000 µg/mL (≈ 27.6 to 55.1 mM); in data set [1] (organic solvent or mixture, DMAc, room temperature) it was more than 54000 µg/mL; in data set [1] (organic solvent or mixture, DMSO, room temperature) it was more than 38000 µg/mL; in data set [1] (organic solvent or mixture, EtOAc, room temperature) it was 1400 to 1500 µg/mL (≈ 3.21 to 3.44 mM); in data set [1] (organic solvent or mixture, EtOH, room temperature) it was 4400 to 5500 µg/mL (≈ 10.1 to 12.6 mM); in data set [1] (organic solvent or mixture, IPA, room temperature), 3000 to 3500 µg/mL (≈ 6.89 to 8.04 mM). In addition, the solubility in data set [1] (organic solvent or mixture, IPAc, room temperature) was less than 1500 µg/mL; in data set [1] (organic solvent or mixture, MIBK, room temperature), less than 1400 µg/mL; in data set [1] (organic solvent or mixture, MTBE, room temperature) it was less than 1300 µg/mL; in data set [1] (organic solvent or mixture, MeOH, room temperature), 12500 to 25000 µg/mL (≈ 28.7 to 57.4 mM); in data set [1] (organic solvent or mixture, NMP, room temperature), more than 56000 µg/mL; in data set [1] (organic solvent or mixture, THF, room temperature), 6000 to 9000 µg/mL (≈ 13.8 to 20.7 mM). The solubility in data set [1] (organic solvent or mixture, Toluene, room temperature) was less than 900 µg/mL; in data set [1] (organic solvent or mixture, n-Heptane, room temperature) it was less than 1500 µg/mL; in data set [1] (water, H2O, room temperature) it was less than 1100 µg/mL.

Turning to `Cc1cc(-c2ccnc(Nc3cnn(C)c3)n2)ccc1CNC(=O)N1CC(OC(C)C)C1` [Compound 1 Type E, 3-isopropoxy-N-(2-methyl-4-(2-((1-methyl-1H-pyrazol-4-yl)amino)pyrimidin-4-yl)benzyl)azetidine-1-carboxamide], in data set [3] (ambient conditions for 2 days), the “Solid form after storage (XRPD)” value is “conformed to Type B”.

With `Cc1cc(-c2ccnc(Nc3cnn(C)c3)n2)ccc1CNC(=O)N1CC(OC(C)C)C1.Cl` [Compound 2 Type B], the “Solid form change during air drying (XRPD)” value in data set [3] (air drying at ambient conditions) is “converted into Compound 2 Type A”.

Source of the values: US20180282310A1, “FORMS AND COMPOSITIONS OF BIARYL INHIBITORS OF BRUTON'S TYROSINE KINASE” (BIOGEN MA INC., priority 2015, published 2018).
